Measurements published in patent publication US11415579B2, “Assay for measuring a rate of reaction between a target and a ligand candidate” (Imperial College Innovations Ltd., priority 2016, dated 2022).

What was measured:
[1] = Kinetic thiol consumption assay with model thiol glutathione; assay type: physicochemical; set-up: Rate constant with glutathione (k(GSH)): unit not given here; settings: for Rate constant with glutathione (k(GSH)): 500 μM ligand, 5 μM thiol, phosphate buffer pH 8; for Rate constant with Glutathione: Protein: Glutathione, cysteine position NA, in h-1
Outline: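 GSH 5 μM, degassed phosphate buffer pH 8, TCEP beads 2% v/v; acrylamide added; RT, 1 h; fluorescence ex/em 380/470 nm; normalized to DMSO/thiol control; k from first-order exponential decay fit.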

[2] = target: T1, human cyclin-dependent kinase 2 (Cdk2) (Homo sapiens, UniProt P24941); assay: Kinetic thiol consumption assay with wild type Cdk2 (C177); assay type: binding; set-up: key to Rate enhancement, Cdk2 WT: k(Cdk2) divided by k(model thiol); Rate constant with Cdk2 (k(Cdk2)): unit not given here; settings: for Rate constant with Cdk2 (k(Cdk2)): 500 μM ligand, 5 μM thiol, phosphate buffer pH 8; for Rate enhancement, Cdk2 WT: no additional mutations; for Rate constant with Cdk2 WT: Protein: Cdk2, cysteine position WT, in h^-1; for k(Cdk2)/k(Cdk2_mut) rate enhancement: model thiol Cdk2[C177A, F80C, K278C]; for k(Cdk2)/k(GSH) rate enhancement: model thiol glutathione
T1 construct: poly-histidine; made in house; host or cells: E. coli
Outline: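 Rate constants came from first-order exponential decay fits of normalized fluorescence against time, with thiol (5 μM) in degassed pH 8 phosphate buffer containing 2% v/v TCEP beads and reads after 1 h at room temperature.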

Cdk2[C177A, F80C, K278C] = target: T2, Cdk2[C177A, F80C, K278C] (Homo sapiens, UniProt P24941, C177A/F80C/K278C); assay: Kinetic thiol consumption assay with mutant Cdk2 as model thiol; assay type: binding; set-up: unit not given here; settings: 500 μM ligand, 5 μM thiol, phosphate buffer pH 8
T2 construct: poly-histidine; made in house; host or cells: E. coli
Outline: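 Model thiol: His-tagged human Cdk2 C177A/F80C/K278C (two engineered surface cysteines), E. coli-expressed, 5 μM in degassed phosphate buffer pH 8 with immobilized TCEP beads (2% v/v). Fluorescence (ex/em 380/470 nm) followed over time at room temperature, normalized to DMSO/thiol control. First-order decay fit gives rate constants.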

Cdk2(C177A, F80C) = target: T3, Cdk2(C177A, F80C) (Homo sapiens, UniProt P24941, C177A/F80C); assay: Kinetic thiol consumption assay with Cdk2 mutant F80C, incl. kobs versus concentration (Kd, k2); assay type: binding; set-up: key to Rate enhancement, Cdk2 F80C: Cdk2 rate constant divided by model-thiol rate constant; settings: additional mutation C177A; for Rate constant with Cdk2 F80C: Protein: Cdk2, cysteine position F80C, in h^-1
T3 construct: poly-histidine; made in house; host or cells: E. coli
Outline: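 His-tagged Cdk2(C177A/F80C) from E. coli or model thiol, 5 μM in degassed phosphate buffer pH 8 with TCEP beads, reacted with acrylamide ligands; fluorescence (ex/em 380/470 nm) normalized to DMSO control and fitted to first-order decay for kobs. Kd and k2 obtained from hyperbolic fit of kobs versus ligand concentration.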

Cdk2(H71C) (C177A) = target: T4, Cdk2(H71C) (C177A) (Homo sapiens, UniProt P24941, C177A/H71C); assay: Kinetic thiol consumption assay with Cdk2 mutant H71C; assay type: binding; set-up: key to Rate enhancement, Cdk2 H71C: rate constant with Cdk2 ÷ rate constant with model thiol (fold); settings: additional mutation C177A; for Rate constant with Cdk2 H71C: Protein: Cdk2, cysteine position H71C, in h^-1
T4 construct: poly-histidine; made in house; host or cells: E. coli
Outline: (§1)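 His-tagged single-surface-cysteine Cdk2 mutants (C177A background) from E. coli, 5 μM in degassed phosphate buffer pH 8, pre-treated with immobilized TCEP beads. Fluorescence (ex/em 380/470 nm) read after 1 h at room temperature, normalized to DMSO/thiol-only control; first-order decay fits gave rate constants, divided by model-thiol rate for rate enhancement.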

Cdk2(S276C) (C177A) = target: T5, Cdk2(S276C) (C177A) (Homo sapiens, UniProt P24941, C177A/S276C); assay: Kinetic thiol consumption assay with Cdk2 mutant S276C; assay type: binding; set-up: key to Rate enhancement, Cdk2 S276C: rate constant with Cdk2 ÷ rate constant with model thiol (fold); settings: additional mutation C177A; for Rate constant with Cdk2 S276C: Protein: Cdk2, cysteine position S276C, in h^-1
T5 construct: poly-histidine; made in house; host or cells: E. coli
Outline: as §1

Cdk2(N272C) (C177A) = target: T6, Cdk2(N272C) (C177A) (Homo sapiens, UniProt P24941, C177A/N272C); assay: Kinetic thiol consumption assay with Cdk2 mutant N272C; assay type: binding; set-up: key to Rate enhancement, Cdk2 N272: rate constant with Cdk2 ÷ rate constant with model thiol (fold); settings: for Rate enhancement, Cdk2 N272: Cdk2 N272, additional mutation C177A; for Rate constant with Cdk2 N272C: Protein: Cdk2, cysteine position N272C, additional mutation C177A, in h^-1
T6 construct: poly-histidine; made in house; host or cells: E. coli
Outline: as §1

Cdk2(T182C) (C177A) = target: T7, Cdk2(T182C) (C177A) (Homo sapiens, UniProt P24941, C177A/T182C); assay: Kinetic thiol consumption assay with Cdk2 mutant T182C; assay type: binding; set-up: key to Rate enhancement, Cdk2 T182C: rate constant with Cdk2 ÷ rate constant with model thiol (fold); settings: additional mutation C177A; for Rate constant with Cdk2 T182C: Protein: Cdk2, cysteine position T182C, in h^-1
T7 construct: poly-histidine; made in house; host or cells: E. coli
Outline: as §1

Cdk2(R122C) (C177A) = target: T8, Cdk2(R122C) (C177A) (Homo sapiens, UniProt P24941, C177A/R122C); assay: Kinetic thiol consumption assay with Cdk2 mutant R122C; assay type: binding; set-up: key to Rate enhancement, Cdk2 R122C: rate constant with Cdk2 ÷ rate constant with model thiol (fold); settings: additional mutation C177A; for Rate constant with Cdk2 R122C: Protein: Cdk2, cysteine position R122C, in h-1
T8 construct: poly-histidine; made in house; host or cells: E. coli
Outline: as §1

Cdk2(S181C) (C177A) = target: T9, Cdk2(S181C) (C177A) (Homo sapiens, UniProt P24941, C177A/S181C); assay: Kinetic thiol consumption assay with Cdk2 mutant S181C; assay type: binding; set-up: key to Rate enhancement, Cdk2 S181C: rate constant with Cdk2 ÷ rate constant with model thiol (fold); settings: additional mutation C177A; for Rate constant with Cdk2 S181C: Protein: Cdk2, cysteine position S181C, in h^-1
T9 construct: poly-histidine; made in house; host or cells: E. coli
Outline: as §1

Row | Rate constant with Cdk2 (k(Cdk2)) [2] | Rate enhancement, Cdk2 WT [2] | Rate constant with Cdk2 WT [2] | k(Cdk2)/k(Cdk2_mut) rate enhancement [2] | k(Cdk2)/k(GSH) rate enhancement [2] | Rate constant with Cdk2[C177A, F80C, K278C] (k(Cdk2_mut)) (Cdk2[C177A, F80C, K278C]) | Rate enhancement, Cdk2 F80C (Cdk2(C177A, F80C)) | Rate enhancement, Cdk2 H71C (Cdk2(H71C) (C177A)) | Rate constant with Cdk2 H71C (Cdk2(H71C) (C177A)) | Rate enhancement, Cdk2 S276C (Cdk2(S276C) (C177A)) | Rate constant with Cdk2 S276C (Cdk2(S276C) (C177A)) | Rate enhancement, Cdk2 N272 (Cdk2(N272C) (C177A)) | Rate enhancement, Cdk2 T182C (Cdk2(T182C) (C177A)) | Rate constant with Cdk2 T182C (Cdk2(T182C) (C177A)) | Rate enhancement, Cdk2 R122C (Cdk2(R122C) (C177A)) | Rate constant with Cdk2 R122C (Cdk2(R122C) (C177A)) | Rate enhancement, Cdk2 S181C (Cdk2(S181C) (C177A)) | Rate constant with Cdk2 S181C (Cdk2(S181C) (C177A)) | SMILES | Rate constant with glutathione (k(GSH)) [1] | Rate constant with Glutathione [1] | further results
1 | 1.146 | 2.081 | 1.146 | 0.5929 | 2.106 | 1.933 | 0 | 0.007207 | 0.003968 | 0.0064 | 0.003524 | 0.008585 | 0.8554 | 0.471 | 0.003956 | 0.002178 | 0.005756 | 0.003169 | C=CC(=O)Nc1[nH]nc(C2CC2)c1-c1ccc2c(c1)OCO2 [CA-041] | 0.5441 | 0.5506 | Rate constant with Cdk2 N272C (Cdk2(N272C) (C177A)): 0.004727
2 | 0.0241 | 1.085 | 0.0241 | 5.016 | 1.95 | 0.00481 | 0.2566 | 16.46 | 0.3655 | 4.036 | 0.08965 | 9.388 | 6.718 | 0.1492 | 0.3503 | 0.00778 | 2.167 | 0.04813 | C=CC(=O)N1CC(Cc2ccccc2)C1 [CA-072] | 0.01236 | 0.02221 | Rate constant with Cdk2 F80C (Cdk2(C177A, F80C)): 0.0057; Rate constant with Cdk2 N272C (Cdk2(N272C) (C177A)): 0.2085
3 | 0.00314 | 1.173 | 0.005012 | 0.5247 | 1.101 | 0.00599 | 1.7587E−11 | 0 | – | 0.4117 | 0.001759 | 0.608 | 1.828 | 0.007812 | 0.229 | 0.0009787 | 0.09078 | 0.0003879 | C=CC(=O)NCCc1c(-c2ccccn2)[nH]c2ccc(F)cc12 [EL-1084] | 0.00286 | 0.004273 | Rate constant with Cdk2 F80C (Cdk2(C177A, F80C)): 7.515E−14; Rate constant with Cdk2 N272C (Cdk2(N272C) (C177A)): 0.002598
4 | 0.01014 | 0.9116 | 0.01361 | 0.65 | 0.6783 | 0.0156 | 0.1205 | 0.6345 | 0.009473 | 0.1863 | 0.002781 | 1.058 | 34.92 | 0.5214 | 0.8326 | 0.01243 | 1.037 | 0.01548 | C=CC(=O)Nc1cccc(Nc2ncnc3cc(OC)c(OC)cc23)c1 [GC248] | 0.01495 | 0.01493 | Rate constant with Cdk2 F80C (Cdk2(C177A, F80C)): 0.001799; Rate constant with Cdk2 N272C (Cdk2(N272C) (C177A)): 0.01579
5 | 0.0009 | 0.3449 | 0.001449 | 0.131 | 0.3555 | 0.00688 | 3.249 | 0.8572 | 0.003601 | 0.716 | 0.003008 | 0 | 1.377 | 0.005783 | 0.532 | 0.002235 | 0.5058 | 0.002125 | C=CC(=O)NCCc1c[nH]c2ccccc12 [EL-1174] | 0.00253 | 0.004201 | Rate constant with Cdk2 F80C (Cdk2(C177A, F80C)): 0.01365
6 | 0.00466 | 0.4144 | 0.004658 | 1.221 | 0.5575 | 0.00382 | 0.3142 | 0.4653 | 0.00523 | 1.346 | 0.01513 | 1.099 | 2.129 | 0.02393 | 0.5734 | 0.006445 | 0.5376 | 0.006043 | C=CC(=O)N1CCN(c2ccccc2C(N)=O)CC1 [EL-1155] | 0.00836 | 0.01124 | Rate constant with Cdk2 F80C (Cdk2(C177A, F80C)): 0.003532; Rate constant with Cdk2 N272C (Cdk2(N272C) (C177A)): 0.01235
7 | 0.00269 | 0.3307 | 0.002694 | 1.749 | 0.4838 | 0.00154 | 0 | 0 | – | 0.1116 | 0.0009087 | 0 | 0.2903 | 0.002365 | 0.2302 | 0.001875 | 0.1134 | 0.0009239 | C=CC(=O)NC1(c2noc(C3CC3)n2)CCCC1 [CA-044] | 0.00557 | 0.008146 | –
